Row | Compound | melting point [°C]
1 | Cc1cnc(CCCCNc2ncc(Cc3ccc(C)nc3)c(=O)[nH]2)c(Cl)c1 | 140 to 142
2 | COc1cc(C)cc(OC)c1C1=NC(NC(=O)c2cc3ccccc3[nH]2)C(=O)N(C)c2ccccc21 (single isomer, unassigned; (-)) | 135
3 | OC1CSC(Oc2cccnc2F)C(O)C1O (configuration not stated) | 85 to 87
4 | CCCN(CCC)c1ccc(NC(=O)N(C[C@H]2CC[C@H](CN(C(=O)Nc3ccc(N(CCC)CCC)cc3)C3CCCCC3)CC2)C2CCCCC2)cc1 | 147 to 150
5 | CC(C)=CCc1cc(C2Oc3c(CC=C(C)C)c(O)cc(O)c3C(=O)C2O)ccc1O (configuration not stated) | 95 to 96
6 | O=C(NCCOc1ccc(CC(Oc2cc(F)cc(F)c2)C(=O)O)cc1)c1ccc(-c2ccccn2)cc1 (configuration not stated) | 150 to 151
7 | CC(=O)Nc1ccc(C#Cc2ccc(N3CC4CCC(C3)N4C)nn2)cc1 | 292
8 | N#CC1CN1C(=O)NSC(F)(F)F (configuration not stated) | 83 to 85
9 | Cc1ccc2c3c(ccc2n1)OCC(CN1CCC2(CC1)C(=O)NCN2c1ccccc1)O3 (configuration not stated) | 199 to 201
10 | CCc1ccc(C2CCCCC2)nc1 | 79 to 81
11 | COc1cc(C)cc(OC)c1N(CCC(C)C)C(=O)CNC(=O)OC(C)(C)C | 132
12 | CO[C@@H]1CN(c2ccc3c(=O)c(C=O)cn(-c4nccs4)c3n2)C[C@H]1NCC(=O)OC(C)(C)C (relative stereo) | 130 to 132
13 | CC1CCC(NC(=O)NS(=O)(=O)c2ccc(CCNC(=O)N3C(=O)c4ccccc4C3C)cc2)CC1 (configuration not stated) | 212 to 214
14 | COC1(c2cccc(OCc3ccc(-n4ccnc4-c4ccccc4)cc3)c2)CCOCC1 | 117 to 118
15 | CCCCc1nc2sccc2[nH]1 | 160
16 | c1c(NC23CC4CC(CC(C4)C2)C3)nc(N2CCCC2)nc1N1CCNCC1 | 152 to 156
17 | CC(C)(C)C(F)(F)c1ccc(C[C@@H](NC(=O)c2ccc(F)c3ccccc23)[C@@H](O)c2cccc(Cl)c2)cc1 (racemic) | 104 to 106
18 | COc1cc(N2CCN(C[C@@H](O)CO)CC2)ccc1Nc1ncc2ccc(-c3ccccc3OC)n2n1 | 83 to 90
19 | COC(=O)c1cc2c(c(OC)c1Br)OCO2 | 85.5 to 86

Row | Compound | melting point [°C]
20 | O=C(O)c1ccc(COc2ccc3c(c2)CCC(CCN2CCCCC2)C3)cc1 (configuration not stated) | 105 to 108
21 | CCCCCCCCCCCCc1c2c(=O)c3cc(Br)ccc3c2c(CCCCCCCCCCCC)c2c(=O)c3cc(Br)ccc3c12 | 122 to 123
22 | CC(C)Oc1ccc(-n2c(C(=O)O)c(Cl)c3cc(Oc4ccc(C(F)(F)F)cc4)ccc32)cc1 | 148 to 150
23 | CCCCCCCCCCCCCCCCNc1ccc(C(=O)NS(=O)(=O)c2ccc(C(C)(C)C)cc2)cc1 | 173 to 176
24 | O=C1c2ccccc2C(=O)N1OC1CCCCCC1 | 110 to 112
25 | Cc1cc(C)c(C)c(P(=O)(c2ccc(F)cc2)c2ccc(F)cc2)c1C | 171 to 173
26 | COP(=O)(OC)C(O)=Cc1cccc(Cl)c1 | 136 to 138
27 | O=C(O)CNC(=O)[C@H]1CC[C@H](C(=O)N2CCN(C3CCNCC3)CC2)CC1 | 260 to 270
28 | Cc1ccc2[nH]c(=O)oc2c1 | 144 to 145
29 | CC(C)(O)c1ccc(-c2ccc(N3C[C@H](Cn4ccnn4)OC3=O)cc2F)cn1 | 180
30 | CC(C)N1C(=O)NC(c2ccc3c(c2)OCO3)c2cc3c(cc21)OCO3 (configuration not stated) | 87 to 89
31 | O=C(NCC12CC3CC(CC(C3)C1)C2)c1cc(I)cnc1Cl | 163 to 164
32 | N#Cc1[nH]c(-c2ccc(Cl)cc2)c(Br)c1-c1ccc(Cl)cc1 | 98 to 100
33 | CCCCCCCCCCCCCCC(NC(C)=O)(C(=O)OCC)C(=O)OCC | 58.5 to 60.5
34 | CCN(CC)S(=O)(=O)c1cc(-c2csc(=Nc3ccc(Cl)cc3)n2C)ccc1Cl | 198
35 | Cc1ccc(C(C)(C)Cl)cc1C | -20 to -19
36 | OC(c1cnc2c(cnn2-c2ccccc2)c1)(c1c[nH]c2ncccc12)C(F)(F)F (configuration not stated) | 137 to 141
37 | CCC(C)CCCCCCCCCCCCCCCCC(=O)O (configuration not stated) | 53

Other lines, results leading:

Row | melting point [°C] | Compound
38 | 249 to 252 | CC1=Nc2ccc(CO)cc2C(=O)C1
39 | 166 to 168 | N=C(NC=Cc1ccc(N)cc1)c1ccccc1
40 | 137 to 138 | Cc1ccc(-c2c(C#N)c(CC(C)C)nc3ccc(OCc4ccccc4)cc23)cc1
41 | 155 to 163 | O=C(O)c1nc2n(n1)-c1cccnc1N(c1ccccc1Cl)C2
42 | 164 | O=C1NC(=O)C(=Cc2ccc(OC[C@@H]3CCCN3c3ccccn3)cc2)S1
43 | 196 to 197 | CCOC(=O)C1=C(C)Nc2cncn2C1c1cccc([N+](=O)[O-])c1 (configuration not stated)
44 | 95 | CCOC(=O)C=Cc1ccc([N+](=O)[O-])c(O)c1
45 | 90 to 92 | C[C@@](O)(C(=O)Nc1ccc(S(=O)(=O)c2ccccc2F)cc1Cl)C(F)(F)F
46 | 100 | Nc1c(CO)cccc1[N+](=O)[O-]
47 | 116 to 117 | COCCNC(=O)c1cccc(-c2c(F)ccc3cc(Cc4cccc(C(F)(F)F)c4)sc23)c1
48 | 230 to 231 | COC(=O)Nc1nc(-c2ccccc2)c(-c2nc3ccccc3c(=O)n2-c2cccc(Cl)c2)s1
49 | 82.5 to 91.5 | Cc1ccc(C(Br)=NOS(C)(=O)=O)cc1
50 | 154 to 156 | CCc1nn(-c2cc(NC(=O)c3ccccc3)ccc2Br)c(=O)n1Cc1ccc(-c2ccccc2S(=O)(=O)NC(=O)OC(C)(C)C)cc1F
51 | 174 | CCCc1ccc(S(=O)(=O)Nc2ccc3nc(C)ccc3c2)cc1
52 | 163 to 165 | CCOC(=O)NN=Cc1ccc2ccccc2n1
53 | 120 to 121 | Cc1oc(-c2ccccc2)nc1COc1ccc(CCCCCC2OC(=O)NC2=O)cc1 (configuration not stated)
54 | 127 to 128 | COC(=O)Cn1c(C)cc(Cc2ccsc2)c(NC(=O)OCc2ccccc2)c1=O
55 | 126 to 128 | OC1c2cc(OCc3ccc4ccccc4n3)ccc2OCC1Oc1cccnc1 (configuration not stated)
56 | 168 | CCC(=O)c1cc[nH]c(=O)c1
57 | 118 to 119 | CCOC(=O)NS(=O)(=O)c1ccc2c(c1)C(=O)CO2
58 | 195 to 200 | Nc1nc(N)c(CCCNc2ccc(C(=O)N[C@@H](CCC(=O)O)C(=O)O)cc2)c(=O)[nH]1
59 | 172 to 173 | CCOC(=O)CCc1ccc2c(c1)nc(N)c1nc(CC)n(CC3CCOCC3)c12
60 | 70 to 72 | CNC(=O)C(=O)CCCCCCc1csc(-c2ccccc2)n1
61 | 145 to 146 | CCOc1cccc(CC(=O)O)c1OCCn1cc(C(=O)NCc2ccc(Cl)cc2Cl)c(OCC)n1
62 | 325 to 327 | O=C1OC(=O)c2c3cc(Cl)ccc3cc3cccc1c23
63 | 108 to 109 | C=CCOC(=O)c1ccc(NC(=O)C(=NO)c2ccc3c(c2)C(C)(C)CCC3(C)C)cc1O
64 | 150 to 154 | CCSc1nc(Cl)c2sc3nc(-c4ccccc4)cc(C)c3c2n1
65 | 205 to 208 | CC(=O)Nc1cccc(-c2ccc3nc(-c4cccnc4N)n(-c4ccc(CNC(=O)c5ccccc5)cc4)c3n2)c1
66 | 139 to 142 | COCCc1ccc(OCC(O)CNC(C)COc2ccc(O)c(C(N)=O)c2)cc1 (configuration not stated)
67 | 117 | CCOC(=O)CC(NC(=O)c1cccc(NC(=O)c2csc(NC(=N)N)n2)c1)c1ccccc1 (racemic)
